Assay results published in ChEMBL document CHEMBL1201862, “PubChem BioAssay data set” (2004).
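Assay format: 96-well plates, 48-hour exposure. GI50 marks 50% less growth.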 Calls of active or inactive are those of the source. Cut-off read from the data, not from the text of the source: active = GI50 up to about 1.1 µM and inactive = higher.

Legend:
Assay in all cases: NCI tumour cell line growth inhibition, 48 h
SF-539 = test system: SF-539
CAKI-1 = test system: CAKI-1
NCI-H23 = test system: NCI-H23
SK-MEL-5 = test system: SK-MEL-5
HT-29 = test system: HT-29
U-251 = test system: U-251
ACHN = test system: ACHN
COLO 205 = test system: COLO 205
HCT-15 = test system: HCT-15
EKVX = test system: EKVX
SW-620 = test system: SW-620
OVCAR-8 = test system: OVCAR-8
LOX IMVI = test system: LOX IMVI
PC-3 = test system: PC-3
M14 = test system: M14
HL-60 = test system: HL-60
RXF 393 = test system: RXF 393
MDA-N = test system: MDA-N
RPMI-8226 = test system: RPMI-8226
IGROV-1 = test system: IGROV-1
HOP-62 = test system: HOP-62
NCI-H226 = test system: NCI-H226
Hs-578T = test system: Hs-578T
KM12 = test system: KM12
SNB-75 = test system: SNB-75
Malme-3M = test system: Malme-3M
CCRF-CEM = test system: CCRF-CEM
UACC-257 = test system: UACC-257
786-0 = test system: 786-0
SK-MEL-28 = test system: SK-MEL-28
T47D = test system: T47D
SN12C = test system: SN12C
TK-10 = test system: TK-10
NCI-H522 = test system: NCI-H522
UACC-62 = test system: UACC-62
SNB-19 = test system: SNB-19
UO-31 = test system: UO-31
K562 = test system: K562
A549 = test system: A549
A498 = test system: A498
MDA-MB-435 = test system: MDA-MB-435
DU-145 = test system: DU-145
SK-OV-3 = test system: SK-OV-3
SF-295 = test system: SF-295
HOP-92 = test system: HOP-92
OVCAR-5 = test system: OVCAR-5
MDA-MB-231 = test system: MDA-MB-231
NCI/ADR-RES = test system: NCI/ADR-RES
BT-549 = test system: BT-549
OVCAR-3 = test system: OVCAR-3
SK-MEL-2 = test system: SK-MEL-2
SF-268 = test system: SF-268
MOLT-4 = test system: MOLT-4
NCI-H460 = test system: NCI-H460
HCT-116 = test system: HCT-116
HCC 2998 = test system: HCC 2998
MCF7 = test system: MCF7
OVCAR-4 = test system: OVCAR-4
SR = test system: SR

Measured: GI50

CC1=NNC(=O)C1C1C=C(c2c[nH]c3ccccc23)OC1=O (stereo not given)
> 100 µM: HCT-15
inactive: SF-539 > 100 µM | CAKI-1 > 100 µM | NCI-H23 > 100 µM | SK-MEL-5 > 100 µM | HT-29 > 100 µM | U-251 > 100 µM | ACHN > 100 µM | COLO 205 > 100 µM | EKVX > 100 µM | SW-620 > 100 µM | OVCAR-8 > 100 µM | LOX IMVI > 100 µM | PC-3 > 100 µM | M14 > 100 µM | HL-60 > 100 µM | RXF 393 > 100 µM | MDA-N > 100 µM | RPMI-8226 39.8 µM | IGROV-1 37 µM | HOP-62 > 100 µM | NCI-H226 > 100 µM | Hs-578T > 100 µM | KM12 21.7 µM | SNB-75 > 100 µM | Malme-3M > 100 µM | CCRF-CEM 59.6 µM | UACC-257 > 100 µM | 786-0 > 100 µM | SK-MEL-28 > 100 µM | T47D > 100 µM | SN12C > 100 µM | TK-10 > 100 µM | NCI-H522 > 100 µM | UACC-62 > 100 µM | SNB-19 > 100 µM | UO-31 > 100 µM | K562 62.4 µM | A549 > 100 µM | A498 > 100 µM | MDA-MB-435 > 100 µM | DU-145 > 100 µM | SK-OV-3 > 100 µM | SF-295 > 100 µM | HOP-92 > 100 µM | OVCAR-5 > 100 µM | MDA-MB-231 > 100 µM | NCI/ADR-RES > 100 µM | BT-549 > 100 µM | OVCAR-3 > 100 µM | SK-MEL-2 > 100 µM | SF-268 > 100 µM | MOLT-4 > 100 µM | NCI-H460 > 100 µM | HCT-116 > 100 µM

COc1c(O)cc2c3c(ccnc13)NC=C2
> 100 µM: HCT-15
inactive: CAKI-1 > 100 µM | HCC 2998 > 100 µM | NCI-H23 > 100 µM | SK-MEL-5 > 100 µM | HT-29 16.9 µM | U-251 80.2 µM | ACHN 55.7 µM | COLO 205 > 100 µM | EKVX > 100 µM | SW-620 68.2 µM | OVCAR-8 > 100 µM | LOX IMVI 61.1 µM | PC-3 24.3 µM | M14 > 100 µM | HL-60 11.4 µM | RXF 393 18.1 µM | MDA-N > 100 µM | MCF7 26.7 µM | RPMI-8226 > 100 µM | IGROV-1 > 100 µM | NCI-H226 > 100 µM | Hs-578T > 100 µM | OVCAR-4 > 100 µM | KM12 > 100 µM | Malme-3M 85.7 µM | CCRF-CEM 4.78 µM | SR 17.3 µM | UACC-257 > 100 µM | 786-0 41.9 µM | SK-MEL-28 > 100 µM | SN12C > 100 µM | TK-10 > 100 µM | NCI-H522 1.63 µM | UACC-62 > 100 µM | SNB-19 > 100 µM | UO-31 36.8 µM | K562 96.6 µM | A549 > 100 µM | A498 > 100 µM | MDA-MB-435 > 100 µM | DU-145 > 100 µM | SK-OV-3 83.2 µM | SF-295 > 100 µM | HOP-92 > 100 µM | OVCAR-5 > 100 µM | MDA-MB-231 35.6 µM | NCI/ADR-RES > 100 µM | BT-549 > 100 µM | OVCAR-3 12.4 µM | SK-MEL-2 57.9 µM | MOLT-4 3.25 µM | NCI-H460 > 100 µM | HCT-116 76.9 µM

CC[C@@]1(C)CCC2c3ccc(O)cc3CC[C@H]2C1C (stereo not given in full)
inactive: SF-539 19.9 µM | CAKI-1 21.2 µM | HCC 2998 13.7 µM | NCI-H23 18 µM | SK-MEL-5 16.9 µM | HT-29 18 µM | U-251 17 µM | ACHN 18.2 µM | COLO 205 17 µM | EKVX 18.2 µM | SW-620 17 µM | OVCAR-8 17.7 µM | LOX IMVI 17 µM | PC-3 19.8 µM | M14 15.7 µM | HL-60 10.8 µM | RXF 393 13 µM | MDA-N 13.1 µM | MCF7 15.1 µM | RPMI-8226 19.4 µM | IGROV-1 20.8 µM | HOP-62 18.7 µM | Hs-578T 18.8 µM | OVCAR-4 19.4 µM | KM12 15.8 µM | SNB-75 19.9 µM | Malme-3M 16.6 µM | CCRF-CEM 16.5 µM | SR 14.3 µM | UACC-257 15.7 µM | 786-0 16.2 µM | SK-MEL-28 17.8 µM | T47D 18.1 µM | SN12C 18.1 µM | TK-10 19.1 µM | NCI-H522 19.3 µM | UACC-62 14.7 µM | SNB-19 17.5 µM | UO-31 16.7 µM | K562 8.75 µM | A549 17.9 µM | A498 19.6 µM | MDA-MB-435 15.6 µM | DU-145 16.6 µM | SF-295 18.8 µM | HOP-92 6.85 µM | OVCAR-5 18.8 µM | NCI/ADR-RES 18.8 µM | BT-549 19 µM | OVCAR-3 20.6 µM | SK-MEL-2 18.6 µM | SF-268 15.5 µM | MOLT-4 14.8 µM | NCI-H460 22.7 µM | HCT-116 17.7 µM
16 µM: HCT-15
